From patent US11466028B2, “Fused 1,4-oxazepines as BET protein degraders” (THE REGENTS OF THE UNIVERSITY OF MICHIGAN, priority 2016, dated 2022) come the findings set out here.

One experiment relates to MDA-MB-231. Nature of the experiment: CellTiter-Glo cell growth inhibition, MDA-MB-231. The settings on record: Homo sapiens, MDA-MB-231, 96 h, 4 days, Table 4. Format: cell-based. On the procedure:
(§1) Cell growth inhibitory activity of representative Compounds of the Disclosure was determined using the CellTiter-Glo® Luminescent Cell Viability Assay. Cells were seeded in 384-well white opaque cell culture plates at a density of 2,000 cells/well with serially diluted compounds and incubated at 37° C. in an atmosphere of 95% air and 5% CO2 for 4 days. Cell viability was determined using the CellTiter-Glo® Luminescent Cell Viability Assay Kit (Promega, Madison, Wis.) according to the manufacture's instruction. Briefly, a volume of CellTiter-Glo® Reagent equal to the volume of cell culture medium was added to each well, and then the plates were incubated at room temperature for 10-20 minutes. The luminescent signal was measured using a Tecan Infinite M1000 multimode microplate reader (Tecan, Morrisville, N.C.). The half maximal inhibitory concentration (IC50) was calculated using the GraphPad Prism 5 software (GraphPad Software, La Jolla, Calif.).
(In ATP-based viability assays light output follows the ATP content of the culture.)

For a further experiment, the system named is MOLM-13. Nature of the experiment: CellTiter-Glo cell growth inhibition, MOLM-13. Format: cell-based. The settings on record: Homo sapiens, MOLM-13, 96 h, 4 days, Table 4, read-out: MOLM-13 IC50. As for the experimental part: as §1
Cpd. Nos. 18 and 19 were tested in various leukemia cell lines using the CellTiter-Glo® Luminescent Cell Viability Assay as described in Example 35.

pIC50: −log10 of the molar value.

What is called pIC50 is −log10 of the IC50, conventionally taken in molar units.

As to `Cc1nnc2n1-c1sc(C#CCOCCOCCNc3cccc4c3C(=O)N(C3CCC(=O)NC3=O)C4=O)c(Cc3ccccc3)c1CO[C@H]2C` (stereo partly drawn) [Cpd. No. 3, 4-((2-(2-((3-((S)-3-benzyl-6,9-dimethyl-4H,6H-thieno[2,3-e][1,2,4]triazolo[3,4-c][1,4]oxazepin-2-yl)prop-2-yn-1-yl)oxy)ethoxy)ethyl)amino)-2-(2,6-dioxopiperidin-3-yl)isoindoline-1,3-dione], the values for the negative logarithm of the IC50 (pIC50) in the experiment with MDA-MB-231 and in the experiment on MOLM-13 were 7.31 and 8.59, respectively.

As to `Cc1nnc2n1-c1sc(C#Cc3cnn(CCOCCNc4cccc5c4C(=O)N(C4CCC(=O)NC4=O)C5=O)c3)c(Cc3ccccc3)c1CO[C@H]2C` (stereo partly drawn) [Cpd. No. 9, 4-((2-(2-(4-(((S)-3-benzyl-6,9-dimethyl-4H,6H-thieno[2,3-e][1,2,4]triazolo[3,4-c][1,4]oxazepin-2-yl)ethynyl)-1H-pyrazol-1-yl)ethoxy)ethyl)amino)-2-(2,6-dioxopiperidin-3-yl)isoindoline-1,3-dione], the pIC50 in the experiment on MDA-MB-231 was 8.33; in the experiment with MOLM-13, 8.96.

For the molecule `Cc1nnc2n1-c1sc(C#CCOCCOCCOc3cccc4c3C(=O)N(C3CCC(=O)NC3=O)C4=O)c(Cc3ccccc3)c1CO[C@H]2C` (stereo partly drawn) [Cpd. No. 2, 4-(2-(2-((3-((S)-3-benzyl-6,9-dimethyl-4H,6H-thieno-[2,3-e][1,2,4]triazolo[3,4-c][1,4]oxazepin-2-yl)prop-2-yn-1-yl)oxy)ethoxy)ethoxy)-2-(2,6-dioxopiperidin-3-yl)isoindoline-1,3-dione], the pIC50 is 6.65 with MDA-MB-231 and 7.46 with MOLM-13.

As to `Cc1nnc2n1-c1sc(C#Cc3ccc(CNc4cccc5c4C(=O)N(C4CCC(=O)NC4=O)C5=O)nc3)c(Cc3ccccc3)c1CO[C@H]2C` (stereo partly drawn) [Cpd. No. 8, 4-(((5-(((S)-3-benzyl-6,9-dimethyl-4H,6H-thieno[2,3-e][1,2,4]triazolo[3,4-c][1,4]oxazepin-2-yl)ethynyl)pyridin-2-yl)methyl)amino)-2-(2,6-dioxopiperidin-3-yl) isoindoline-1,3-dione], the values for the pIC50 with MDA-MB-231 and in the experiment with MOLM-13 were 5.83 and 6.93, respectively.

As to `Cc1nnc2n1-c1sc(C#Cc3cnn(CCNc4cccc5c4C(=O)N(C4CCC(=O)NC4=O)C5=O)c3)c(Cc3ccccc3)c1CO[C@H]2C` (stereo partly drawn) [Cpd. No. 6, 4-((2-(4-(((S)-3-benzyl-6,9-dimethyl-4H,6H-thieno[2,3-e][1,2,4]triazolo[3,4-c][1,4]oxazepin-2-yl)ethynyl)-1H-pyrazol-1-yl)ethyl)amino)-2-(2,6-dioxopiperidin-3-yl)isoindoline-1,3-dione], the negative-log IC50 (pIC50) is 7.19 in the experiment with MDA-MB-231 and 7.22 in the experiment with MOLM-13.

Take `Cc1nnc2n1-c1sc(C#CCOCCOCCOCCOCCNc3cccc4c3C(=O)N(C3CCC(=O)NC3=O)C4=O)c(Cc3ccccc3)c1CO[C@H]2C` (stereo partly drawn) [Cpd. No. 5, 4-((15-((S)-3-benzyl-6,9-dimethyl-4H,6H-thieno[2,3-e][1,2,4]triazolo[3,4-c][1,4]oxazepin-2-yl)-3,6,9,12-tetraoxapentadec-14-yn-1-yl)amino)-2-(2,6-dioxopiperidin-3-yl)isoindoline-1,3-dione]: the values for the pIC50 in the experiment with MDA-MB-231 and in the experiment with MOLM-13 were 8.21 and 9.15, respectively.

In the case of `Cc1nnc2n1-c1sc(C#Cc3cnn(CCCNc4cccc5c4C(=O)N(C4CCC(=O)NC4=O)C5=O)c3)c(Cc3ccccc3)c1CO[C@H]2C` (stereo partly drawn) [Cpd. No. 10, 4-((3-(4-(((S)-3-benzyl-6,9-dimethyl-4H,6H-thieno[2,3-e][1,2,4]triazolo[3,4-c][1,4]oxazepin-2-yl)ethynyl)-1H-pyrazol-1-yl)propyl)amino)-2-(2,6-dioxopiperidin-3-yl)isoindoline-1,3-dione], the pIC50 in the experiment with MDA-MB-231 is 7.47; with MOLM-13 it was 8.59.

For the molecule `Cc1nnc2n1-c1sc(C#CCOCCNc3cccc4c3C(=O)N(C3CCC(=O)NC3=O)C4=O)c(Cc3ccccc3)c1CO[C@H]2C` (stereo partly drawn) [Cpd. No. 1, 4-((2-((3-((S)-3-benzyl-6,9-dimethyl-4H,6H-thieno[2,3-e][1,2,4]triazolo[3,4-c][1,4]oxazepin-2-yl)prop-2-yn-1-yl)oxy)ethyl)amino)-2-(2,6-dioxopiperidin-3-yl) isoindoline-1,3-dione], the pIC50 was 5.77 in the experiment on MDA-MB-231 and 6.09 in the experiment on MOLM-13.
